Reference: ChEMBL document CHEMBL3774309, “SAR Exploration Guided by LE and Fsp(3): Discovery of a Selective and Orally Efficacious RORγ Inhibitor” (ACS Med Chem Lett, 2016)

Columns and labels:
[1] = Metabolic stability in liver S9 fraction (unknown origin) assessed as parent compound remaining incubated for 60 mins; assay type: ADME, subcellular; conditions: human, read-out: Stability
[2] = biological target: T1, Nuclear receptor ROR-gamma (Homo sapiens, UniProt P51449)
T1 sequence (P51449 whole entry): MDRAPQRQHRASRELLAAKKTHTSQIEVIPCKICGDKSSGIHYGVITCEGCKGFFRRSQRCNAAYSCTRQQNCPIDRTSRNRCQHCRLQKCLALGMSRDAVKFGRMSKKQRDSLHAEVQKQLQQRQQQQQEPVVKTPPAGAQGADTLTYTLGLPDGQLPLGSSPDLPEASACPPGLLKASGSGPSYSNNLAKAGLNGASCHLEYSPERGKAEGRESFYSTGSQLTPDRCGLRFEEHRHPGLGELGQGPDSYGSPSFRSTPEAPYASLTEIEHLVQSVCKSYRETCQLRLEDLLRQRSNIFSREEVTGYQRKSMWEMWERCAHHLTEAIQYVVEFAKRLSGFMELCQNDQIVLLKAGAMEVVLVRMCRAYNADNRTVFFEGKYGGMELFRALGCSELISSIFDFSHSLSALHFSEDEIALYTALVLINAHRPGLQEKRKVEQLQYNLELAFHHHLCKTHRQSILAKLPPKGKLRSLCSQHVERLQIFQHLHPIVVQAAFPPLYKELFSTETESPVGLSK
Description: Inhibition of human RORgamma ligand binding domain (Serine 253 to Lysine 518 residues) expressed in CHOK1 cells incubated for 2 days by Gal4 luciferase reporter gene assay

[3] = Metabolic stability in liver S9 fraction (unknown origin) assessed as parent compound remaining incubated for 10 mins; assay type: ADME, subcellular; conditions: human, read-out: Stability
[4] = biological target: T2, Nuclear receptor ROR-gamma (Mus musculus, UniProt P51450); assay: Inhibition of mouse RORgamma ligand binding domain (Isoleucine 251 to Lysine 516) expressed in CHOK1 cells incubated for 2 days by Gal4 luciferase reporter gene assay; assay type: cell-based, CHO-K1
T2 sequence (P51450 whole entry): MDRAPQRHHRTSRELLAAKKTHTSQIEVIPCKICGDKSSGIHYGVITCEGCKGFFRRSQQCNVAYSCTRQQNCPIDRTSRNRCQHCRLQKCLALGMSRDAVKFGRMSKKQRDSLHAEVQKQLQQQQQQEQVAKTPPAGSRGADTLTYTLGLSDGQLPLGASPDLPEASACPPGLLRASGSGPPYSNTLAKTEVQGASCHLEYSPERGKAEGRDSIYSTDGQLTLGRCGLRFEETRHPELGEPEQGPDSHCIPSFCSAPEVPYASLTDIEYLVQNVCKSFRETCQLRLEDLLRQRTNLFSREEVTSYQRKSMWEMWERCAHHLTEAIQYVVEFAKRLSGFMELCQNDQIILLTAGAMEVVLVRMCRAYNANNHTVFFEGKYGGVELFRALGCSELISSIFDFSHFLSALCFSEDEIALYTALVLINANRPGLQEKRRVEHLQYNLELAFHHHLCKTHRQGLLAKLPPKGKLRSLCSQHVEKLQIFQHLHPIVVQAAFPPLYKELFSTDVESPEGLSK

[5] = Metabolic stability in human liver microsomes assessed as parent compound remaining incubated for 10 mins; assay type: ADME; conditions: read-out: Stability
[6] = biological target: Cytochrome P450 3A4 (Homo sapiens, UniProt P08684); assay: Inhibition of CYP3A4 in human liver microsomes using midazolam as substrate preincubated with substrate for 5 mins followed by NADPH addition measured after 20 mins by HPLC analysis; assay type: ADME
Cytochrome P450 3A4, sequence (P08684 whole entry): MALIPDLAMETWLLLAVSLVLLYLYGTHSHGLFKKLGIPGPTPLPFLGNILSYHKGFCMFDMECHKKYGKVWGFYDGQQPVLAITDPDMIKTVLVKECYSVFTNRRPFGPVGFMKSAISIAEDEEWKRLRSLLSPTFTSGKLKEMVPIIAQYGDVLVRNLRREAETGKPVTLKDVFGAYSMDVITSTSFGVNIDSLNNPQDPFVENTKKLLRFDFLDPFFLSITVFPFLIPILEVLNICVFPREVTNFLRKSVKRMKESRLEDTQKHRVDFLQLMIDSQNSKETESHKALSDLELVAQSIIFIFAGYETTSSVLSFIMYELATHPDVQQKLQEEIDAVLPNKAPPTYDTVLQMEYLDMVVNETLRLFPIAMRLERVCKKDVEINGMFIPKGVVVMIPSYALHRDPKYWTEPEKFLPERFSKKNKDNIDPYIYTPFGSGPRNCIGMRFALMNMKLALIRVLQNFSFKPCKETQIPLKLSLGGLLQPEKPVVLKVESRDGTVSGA

[7] = biological target: Cytochrome P450 2A6 (Homo sapiens, UniProt P11509); assay: Inhibition of CYP2A6 in human liver microsomes using coumarin as substrate preincubated with substrate for 5 mins followed by NADPH addition measured after 20 mins by HPLC analysis; assay type: ADME
Cytochrome P450 2A6, sequence (P11509 whole entry): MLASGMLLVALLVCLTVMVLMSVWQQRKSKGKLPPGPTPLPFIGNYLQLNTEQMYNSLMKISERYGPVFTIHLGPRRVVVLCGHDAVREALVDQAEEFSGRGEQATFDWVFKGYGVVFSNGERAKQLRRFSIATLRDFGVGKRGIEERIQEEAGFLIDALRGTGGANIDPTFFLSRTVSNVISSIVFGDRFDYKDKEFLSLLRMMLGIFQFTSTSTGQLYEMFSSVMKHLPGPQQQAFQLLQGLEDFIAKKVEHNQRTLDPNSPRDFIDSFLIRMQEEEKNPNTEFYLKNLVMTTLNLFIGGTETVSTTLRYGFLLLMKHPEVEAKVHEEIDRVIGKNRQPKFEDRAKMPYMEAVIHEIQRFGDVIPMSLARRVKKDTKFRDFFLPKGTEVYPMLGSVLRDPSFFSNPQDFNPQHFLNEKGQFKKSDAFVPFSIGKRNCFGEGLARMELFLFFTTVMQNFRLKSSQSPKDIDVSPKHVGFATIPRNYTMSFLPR

[8] = biological target: Nuclear receptor ROR-beta (Homo sapiens, UniProt Q92753); assay: Inhibition of human RORbeta
[9] = biological target: Cytochrome P450 2D6 (Homo sapiens, UniProt P10635); assay: Inhibition of CYP2D6 in human liver microsomes using bufuralol as substrate preincubated with substrate for 5 mins followed by NADPH addition measured after 20 mins by HPLC analysis; assay type: ADME
[10] = biological target: Peroxisome proliferator-activated receptor alpha (Homo sapiens, UniProt Q07869); assay: Inhibition of human PPARalpha
Peroxisome proliferator-activated receptor alpha, sequence (Q07869 whole entry): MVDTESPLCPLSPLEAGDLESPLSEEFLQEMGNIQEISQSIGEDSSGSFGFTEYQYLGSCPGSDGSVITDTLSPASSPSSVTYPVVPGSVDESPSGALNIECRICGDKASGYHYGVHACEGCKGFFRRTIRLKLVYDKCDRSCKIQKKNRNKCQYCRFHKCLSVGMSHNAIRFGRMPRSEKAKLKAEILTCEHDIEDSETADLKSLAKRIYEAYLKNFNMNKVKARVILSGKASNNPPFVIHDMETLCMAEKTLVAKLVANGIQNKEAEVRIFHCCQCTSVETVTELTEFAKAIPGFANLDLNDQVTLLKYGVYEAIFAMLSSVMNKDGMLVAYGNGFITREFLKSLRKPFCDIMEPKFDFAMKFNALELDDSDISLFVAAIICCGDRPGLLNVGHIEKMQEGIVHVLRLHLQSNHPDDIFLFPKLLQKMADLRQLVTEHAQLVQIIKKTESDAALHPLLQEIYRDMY

[11] = biological target: Peroxisome proliferator-activated receptor delta (Homo sapiens, UniProt Q03181); assay: Inhibition of human PPARdelta
[12] = biological target: Progesterone receptor (Homo sapiens, UniProt P06401); assay: Inhibition of human PR
Progesterone receptor, sequence (P06401 whole entry): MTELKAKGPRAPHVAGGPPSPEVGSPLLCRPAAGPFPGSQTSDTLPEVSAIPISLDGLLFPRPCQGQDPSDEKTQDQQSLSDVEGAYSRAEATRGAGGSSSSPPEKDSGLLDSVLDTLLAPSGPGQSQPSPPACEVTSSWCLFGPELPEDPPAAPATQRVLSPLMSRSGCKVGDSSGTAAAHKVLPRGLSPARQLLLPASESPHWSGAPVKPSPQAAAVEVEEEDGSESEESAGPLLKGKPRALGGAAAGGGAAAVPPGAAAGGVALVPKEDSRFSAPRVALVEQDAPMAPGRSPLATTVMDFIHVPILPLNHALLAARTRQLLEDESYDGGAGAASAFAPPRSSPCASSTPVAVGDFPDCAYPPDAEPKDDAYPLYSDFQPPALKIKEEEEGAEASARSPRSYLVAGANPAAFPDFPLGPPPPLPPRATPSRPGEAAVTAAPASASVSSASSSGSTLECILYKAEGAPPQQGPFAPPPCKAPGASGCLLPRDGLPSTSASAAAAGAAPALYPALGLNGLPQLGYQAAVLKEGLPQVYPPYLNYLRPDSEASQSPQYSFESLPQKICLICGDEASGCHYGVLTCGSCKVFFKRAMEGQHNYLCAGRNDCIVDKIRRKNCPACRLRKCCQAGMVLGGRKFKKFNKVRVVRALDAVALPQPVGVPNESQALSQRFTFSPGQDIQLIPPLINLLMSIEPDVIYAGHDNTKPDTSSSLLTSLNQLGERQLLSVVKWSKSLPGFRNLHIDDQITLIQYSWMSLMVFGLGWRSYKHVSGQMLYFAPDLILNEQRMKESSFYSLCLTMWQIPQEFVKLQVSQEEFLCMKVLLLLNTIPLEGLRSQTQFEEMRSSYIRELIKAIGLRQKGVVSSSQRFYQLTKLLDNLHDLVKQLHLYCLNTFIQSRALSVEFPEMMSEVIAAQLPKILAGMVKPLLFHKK

[13] = biological target: Steroidogenic factor 1 (Homo sapiens, UniProt Q13285); assay: Inhibition of human SF-1 receptor
Steroidogenic factor 1, sequence (Q13285 whole entry): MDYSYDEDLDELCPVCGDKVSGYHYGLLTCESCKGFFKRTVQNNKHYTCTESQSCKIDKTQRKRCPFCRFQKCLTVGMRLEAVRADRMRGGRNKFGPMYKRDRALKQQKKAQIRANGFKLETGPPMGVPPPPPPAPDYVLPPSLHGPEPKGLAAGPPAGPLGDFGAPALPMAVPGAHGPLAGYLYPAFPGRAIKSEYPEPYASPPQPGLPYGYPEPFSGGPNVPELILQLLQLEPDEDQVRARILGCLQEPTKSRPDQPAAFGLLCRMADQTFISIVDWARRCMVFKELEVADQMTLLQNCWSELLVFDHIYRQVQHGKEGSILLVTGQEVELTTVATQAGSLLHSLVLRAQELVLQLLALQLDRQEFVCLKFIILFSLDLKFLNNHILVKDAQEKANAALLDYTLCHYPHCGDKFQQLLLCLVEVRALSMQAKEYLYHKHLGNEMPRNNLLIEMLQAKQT

[14] = biological target: Bile acid receptor (Homo sapiens, UniProt Q96RI1); assay: Inhibition of human FXR
[15] = biological target: Cytochrome P450 2C9 (Homo sapiens, UniProt P11712); assay: Inhibition of CYP2C9 in human liver microsomes using diclofenac as substrate preincubated with substrate for 5 mins followed by NADPH addition measured after 20 mins by HPLC analysis; assay type: ADME
[16] = biological target: Vitamin D3 receptor (Homo sapiens, UniProt P11473); assay: Inhibition of human VDR
[17] = biological target: Nuclear receptor ROR-alpha (Homo sapiens, UniProt P35398); assay: Inhibition of human RORalpha
[18] = test system: Mus musculus; assay: Inhibition of MOG/PTX/CD3 antibody-induced IL-17 production in po dosed C57BL/6 mouse plasma adminstered 3 to 8 hrs before CD3 antibody injection by ELISA; assay type: functional, organism-based
[19] = biological target: Retinoic acid receptor alpha (Homo sapiens, UniProt P10276); assay: Inhibition of human RARalpha
Retinoic acid receptor alpha, sequence (P10276 whole entry): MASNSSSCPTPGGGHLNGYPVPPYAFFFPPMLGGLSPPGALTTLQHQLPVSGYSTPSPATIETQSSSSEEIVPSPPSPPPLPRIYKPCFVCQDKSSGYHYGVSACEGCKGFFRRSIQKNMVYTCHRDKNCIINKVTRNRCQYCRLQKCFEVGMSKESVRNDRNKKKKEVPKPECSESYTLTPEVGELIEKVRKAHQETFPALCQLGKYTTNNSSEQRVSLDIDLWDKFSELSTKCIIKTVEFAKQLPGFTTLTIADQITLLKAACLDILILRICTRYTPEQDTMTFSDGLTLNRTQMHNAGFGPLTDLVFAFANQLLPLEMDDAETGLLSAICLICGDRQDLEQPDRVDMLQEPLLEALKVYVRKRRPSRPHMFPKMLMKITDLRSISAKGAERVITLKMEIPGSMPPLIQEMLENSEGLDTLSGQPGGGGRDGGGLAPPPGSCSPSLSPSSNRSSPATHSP

[20] = biological target: Retinoic acid receptor beta (Homo sapiens, UniProt P10826); assay: Inhibition of human RARbeta
Retinoic acid receptor beta, sequence (P10826 whole entry): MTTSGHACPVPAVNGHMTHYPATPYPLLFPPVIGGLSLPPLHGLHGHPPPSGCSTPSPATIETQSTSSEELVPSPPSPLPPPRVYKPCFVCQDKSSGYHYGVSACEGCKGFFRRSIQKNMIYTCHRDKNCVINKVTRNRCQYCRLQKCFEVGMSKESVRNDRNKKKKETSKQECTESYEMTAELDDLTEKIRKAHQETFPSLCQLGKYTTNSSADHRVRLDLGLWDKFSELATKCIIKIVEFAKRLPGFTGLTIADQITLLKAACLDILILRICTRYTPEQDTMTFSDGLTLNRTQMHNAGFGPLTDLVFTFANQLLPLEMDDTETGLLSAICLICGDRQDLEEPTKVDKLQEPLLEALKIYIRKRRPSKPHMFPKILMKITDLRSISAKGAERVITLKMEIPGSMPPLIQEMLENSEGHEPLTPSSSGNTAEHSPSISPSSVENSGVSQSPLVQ

[21] = biological target: Cytochrome P450 2C19 (Homo sapiens, UniProt P33261); assay: Inhibition of CYP2C19 in human liver microsomes using S-mephenytoin as substrate preincubated with substrate for 5 mins followed by NADPH addition measured after 20 mins by HPLC analysis; assay type: ADME
Cytochrome P450 2C19, sequence (P33261 whole entry): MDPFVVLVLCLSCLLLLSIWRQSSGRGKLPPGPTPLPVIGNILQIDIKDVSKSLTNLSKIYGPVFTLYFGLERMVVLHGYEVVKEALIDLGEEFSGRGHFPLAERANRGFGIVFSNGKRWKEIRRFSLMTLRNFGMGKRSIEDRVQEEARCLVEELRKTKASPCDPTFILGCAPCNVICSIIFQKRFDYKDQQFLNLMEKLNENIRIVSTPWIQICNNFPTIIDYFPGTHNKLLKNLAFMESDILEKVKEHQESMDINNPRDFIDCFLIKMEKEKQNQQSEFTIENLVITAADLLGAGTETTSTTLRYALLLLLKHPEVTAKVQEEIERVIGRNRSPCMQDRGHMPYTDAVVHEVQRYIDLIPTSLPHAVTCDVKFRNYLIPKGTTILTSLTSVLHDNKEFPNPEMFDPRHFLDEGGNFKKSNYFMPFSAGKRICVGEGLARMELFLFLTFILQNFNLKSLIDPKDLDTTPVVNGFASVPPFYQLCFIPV

[22] = biological target: Oxysterols receptor LXR-alpha (Mus musculus, UniProt Q9Z0Y9); assay: Inhibition of mouse LXRalpha
[23] = biological target: Cytochrome P450 1A2 (Homo sapiens, UniProt P05177); assay: Inhibition of CYP1A2 in human liver microsomes using ethoxyresorufin as substrate preincubated with substrate for 5 mins followed by NADPH addition measured after 20 mins by HPLC analysis; assay type: ADME
[24] = biological target: Glucocorticoid receptor (Mus musculus, UniProt P06537); assay: Inhibition of mouse GR
[25] = biological target: Peroxisome proliferator-activated receptor gamma (Homo sapiens, UniProt P37231); assay: Inhibition of human PPARgamma
[26] = biological target: Retinoic acid receptor RXR-alpha (Homo sapiens, UniProt P19793); assay: Inhibition of human RXRalpha
Retinoic acid receptor RXR-alpha, sequence (P19793 whole entry): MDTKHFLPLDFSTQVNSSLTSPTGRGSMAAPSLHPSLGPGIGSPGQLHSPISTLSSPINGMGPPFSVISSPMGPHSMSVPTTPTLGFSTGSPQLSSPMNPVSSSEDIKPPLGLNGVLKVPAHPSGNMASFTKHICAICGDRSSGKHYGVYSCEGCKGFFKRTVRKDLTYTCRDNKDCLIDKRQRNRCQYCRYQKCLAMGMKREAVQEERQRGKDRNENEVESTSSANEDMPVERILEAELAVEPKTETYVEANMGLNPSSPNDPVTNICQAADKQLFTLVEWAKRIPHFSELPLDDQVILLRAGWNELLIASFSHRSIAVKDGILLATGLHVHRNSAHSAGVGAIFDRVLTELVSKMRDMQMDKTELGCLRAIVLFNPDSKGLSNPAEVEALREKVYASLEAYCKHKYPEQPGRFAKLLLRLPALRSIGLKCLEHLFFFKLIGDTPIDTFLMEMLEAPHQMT

## Cc1ccc(NC(=O)CCc2nnc(-c3ccc(CC(C)C)cc3)n2C2CC2)c(C)c1
[1]
  remaining at 1 h: 55%
[2]
  EC50: 1800 nM
[3]
  remaining at 10 min: 84%
[4]
  EC50: 120 nM

## CCn1c(CC(C)C(=O)Nc2cccc3ccccc23)nnc1C1Cc2ccccc2C1 (racemic)
[2]
  EC50: 1300 nM
[4]
  EC50: 670 nM

## CCn1c(CCC(=O)Nc2cccc3ccccc23)nnc1CCC(C)(C)C
[2]
  EC50: 6700 nM
[4]
  EC50: 830 nM

## CCn1c(CCC(=O)Nc2cccc(Cl)c2C)nnc1CCC1CCCCC1
[2]
  EC50: 960 nM
[4]
  EC50: 640 nM

## CCC(C)CCc1nnc(CCC(=O)Nc2ccc(C)cc2C)n1C1CC1 (racemic)
[1]
  remaining at 1 h: 27%
[2]
  EC50: 3900 nM
[3]
  remaining at 10 min: 63%
[4]
  EC50: 1400 nM

## CCn1c(CCC(=O)Nc2ccc(C)cc2C)nnc1CCC1CCCCC1
[1]
  remaining at 1 h: 0%
[2]
  EC50: 900 nM
[3]
  remaining at 10 min: 36%
[5]
  remaining at 10 min: 36%
[4]
  EC50: 600 nM

## CCn1c(CCC(=O)Nc2cccc3ccccc23)nnc1CCC1CCCCC1
[2]
  EC50: 820 nM
[4]
  EC50: 300 nM

## Cc1ccc(NC(=O)CCc2nnc(-c3cc(CC(C)C)on3)n2C2CC2)c(C)c1
[1]
  remaining at 1 h: 31%
[2]
  EC50: 450 nM
[3]
  remaining at 10 min: 83%
[4]
  EC50: 54 nM

## CCn1c(CCC(=O)Nc2cccc3ccccc23)nnc1C1CCCCC1
[2]
  EC50: > 20000 nM
[4]
  EC50: 4500 nM

## CCn1c(CCC(=O)Nc2cccc3ccccc23)nnc1C1Cc2ccccc2C1
[2]
  EC50: 1000 nM
[4]
  EC50: 400 nM

## CCn1c(OCC(=O)Nc2cccc3ccccc23)nnc1C1Cc2ccccc2C1
[2]
  EC50: > 20000 nM
[4]
  EC50: > 20000 nM

## CCn1c(C(O)CC(=O)Nc2cccc3ccccc23)nnc1C1Cc2ccccc2C1 (racemic)
[2]
  EC50: > 20000 nM
[4]
  EC50: > 20000 nM

## Cc1ccc(NC(=O)[C@H]2C[C@@H](O)C[C@@H]2c2nnc([C@H]3C[C@@H](CC(C)C)C3)n2C2CC2)c(C)c1
[1]
  remaining at 1 h: 76%
[2]
  EC50: 98 nM
[3]
  remaining at 10 min: 87%
[6]
  IC50: 3000 nM
[4]
  EC50: 38 nM

## Cc1ccc(NC(=O)[C@H]2CN(C)CC[C@@H]2c2nnc([C@H]3C[C@@H](CC(C)C)C3)n2C2CC2)c(C)c1 (racemic)
[1]
  remaining at 1 h: 21%
[2]
  EC50: 230 nM
[3]
  remaining at 10 min: 53%
[4]
  EC50: 290 nM

## Cc1ccc(NC(=O)CCc2nnc(CCC3CCCCC3)n2C2CC2(F)F)c(C)c1 (stereo not given)
[1]
  remaining at 1 h: 59%
[2]
  EC50: 920 nM
[3]
  remaining at 10 min: 75%
[4]
  EC50: 500 nM

## CCn1c(CCC(=O)Nc2cccc3ccccc23)nnc1CC1CCCCC1
[2]
  EC50: 14000 nM
[4]
  EC50: 2600 nM

## CCn1c(C(C)CC(=O)Nc2cccc3ccccc23)nnc1C1Cc2ccccc2C1 (racemic)
[2]
  EC50: 1700 nM
[4]
  EC50: 1100 nM

## Cc1ccc(NC(=O)CCc2nnc(CCC3CCCCC3)n2C2CCC2)c(C)c1
[1]
  remaining at 1 h: 27%
[2]
  EC50: 9500 nM
[3]
  remaining at 10 min: 49%
[4]
  EC50: 1800 nM

## Cc1ccc(NC(=O)CCc2nnc(CCC3CCCCC3)n2C2CC2)c(C)c1
[1]
  remaining at 1 h: 23%
[2]
  EC50: 980 nM
[3]
  remaining at 10 min: 55%
[4]
  EC50: 450 nM

## CCn1c(CCC(=O)Nc2cccc3ccccc23)nnc1CCc1ccccc1
[2]
  EC50: 2500 nM
[4]
  EC50: 630 nM

## CCn1c(CCC(=O)Nc2cc(C)cc(C)c2)nnc1CCC1CCCCC1
[2]
  EC50: 2900 nM
[4]
  EC50: 3100 nM

## CCn1c(CCC(=O)Nc2cccc3ccccc23)nnc1CCC(C)C
[2]
  EC50: 13000 nM
[4]
  EC50: 1400 nM

## Cc1ccc(NC(=O)CCc2nnc(CCCC(C)(C)C)n2C2CC2)c(C)c1
[1]
  remaining at 1 h: 51%
[2]
  EC50: 2800 nM
[3]
  remaining at 10 min: 71%
[4]
  EC50: 1300 nM

## Cc1ccc(NC(=O)CCc2nnc(CCCC(C)C)n2C2CC2)c(C)c1
[1]
  remaining at 1 h: 27%
[2]
  EC50: 1700 nM
[3]
  remaining at 10 min: 67%
[4]
  EC50: 610 nM

## CC(=O)N1C[C@H](C(=O)Nc2ccc(C)cc2C)[C@@H](c2nnc([C@H]3C[C@@H](CC(C)C)C3)n2C2CC2)C1
[7]
  IC50: > 50000 nM
[8]
  EC50: > 20000 nM
[9]
  IC50: > 50000 nM
[10]
  EC50: > 20000 nM
[11]
  EC50: > 20000 nM
[1]
  remaining at 1 h: 61%
[12]
  EC50: > 20000 nM
[13]
  EC50: > 20000 nM
[14]
  EC50: > 20000 nM
[15]
  IC50: > 50000 nM
[16]
  EC50: > 20000 nM
[17]
  EC50: > 20000 nM
[18]
  inhibition: Dose-dependent effect
[19]
  EC50: > 20000 nM
[20]
  EC50: > 20000 nM
[21]
  IC50: > 50000 nM
[3]
  remaining at 10 min: 86%
[22]
  EC50: > 20000 nM
[23]
  IC50: > 50000 nM
[6]
  IC50: > 50000 nM
[6]; human, microsomes, 20 min, TDE = time-dependent effect
  inhibition (INH): tde
[24]
  EC50: > 20000 nM
[25]
  EC50: > 20000 nM
[26]
  EC50: > 20000 nM

## Cc1ccc(NC(=O)CCc2nnc([C@H]3C[C@H](CC(C)C)C3)n2C2CC2)c(C)c1
[1]
  remaining at 1 h: 31%
[2]
  EC50: 400 nM
[3]
  remaining at 10 min: 68%
[4]
  EC50: 53 nM

## Cc1ccc(NC(=O)CCc2nnc([C@H]3C[C@@H](CC(C)C)C3)n2C2CC2)c(C)c1
[1]
  remaining at 1 h: 39%
[2]
  EC50: 140 nM
[3]
  remaining at 10 min: 70%
[6]
  IC50: 5000 nM
[4]
  EC50: 35 nM
